From ChEMBL document CHEMBL5537165, “Hepatitis C: The Story of a Long Journey through First, Second, and Third Generation NS3/4A Peptidomimetic Inhibitors. What Did We Learn?” (J Med Chem, 2024)
*1 amine or outer side, *2 acyl side, *3 side chain or, on linkers, in order; H or OH if unused. Where a SMILES comes first, the peptide text is derived from it. Side-chain parts run from the residue outwards. [ ]: non-standard residue; d: D form. The star is where a group is joined. Tetrahydroisoquinolin(2-yl) = c1ccc2c(c1)CCN(*)C2; Pyrazinecarbonyl = O=C(c1cnccn1)*; Hyp = O=C(O)[C@@H]1C[C@@H](O)CN1; Abu = CC[C@H](N)C(=O)O; CO = O=C([*:1])[*:2]; Bn = c1ccc(C*)cc1

How the values were obtained:
[1] = Oral bioavailability in Beagle dog at 2 mg/kg; assay type: ADME, organism-based, Canis lupus familiaris; settings: in vivo
[2] = Half life in Sprague-Dawley rat at 5 mg/kg, po by LC-MS/MS analysis; assay type: ADME, organism-based; settings: in vivo
[3] = Cmax in Sprague-Dawley rat at 3 mg/kg, po and measured upto 24 hrs by LC-MS/MS analysis; assay type: ADME, organism-based; settings: in vivo
[4] = Oral bioavailability in Sprague-Dawley rat; assay type: ADME, organism-based; settings: in vivo
[5] = Clearance in Sprague-Dawley rat at 2 mg/kg, iv by LC-MS/MS analysis; assay type: ADME, organism-based; settings: in vivo
[6] = Clearance in Beagle dog plasma at 0.5 mg/kg, iv and measured upto 24 hrs by LC-MS/MS analysis; assay type: ADME, organism-based, Canis lupus familiaris
[7] = AUC (0 to infinity) in liver to plasma of Sprague-Dawley rat at 3 mg/kg,po; assay type: ADME, organism-based; settings: in vivo
[8] = biological target: T1, Non-structural protein 4b (Hepacivirus hominis, UniProt F5B4I0); experiment: Binding affinity to Hepatitis C virus genotype 3a NS4B assessed as inhibition constant
T1 sequence (F5B4I0 whole entry): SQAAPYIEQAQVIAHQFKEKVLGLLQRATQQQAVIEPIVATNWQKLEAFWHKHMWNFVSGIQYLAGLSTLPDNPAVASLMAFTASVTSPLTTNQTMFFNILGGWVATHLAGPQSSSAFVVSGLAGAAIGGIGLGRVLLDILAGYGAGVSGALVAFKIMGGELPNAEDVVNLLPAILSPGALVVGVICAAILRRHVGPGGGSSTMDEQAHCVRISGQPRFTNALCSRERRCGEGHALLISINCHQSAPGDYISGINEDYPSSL

[9] = Cmax in Beagle dog at 3 mg/kg, po and measured upto 24 hrs by LC-MS/MS analysis; assay type: ADME, organism-based, Canis lupus familiaris; settings: in vivo
[10] = Half life in Beagle dog at 5 mg/kg, po by LC-MS/MS analysis; assay type: ADME, organism-based, Canis lupus familiaris; settings: in vivo
[11] = biological target: T1, Non-structural protein 4b; experiment: Binding affinity to Hepatitis C virus genotype 1a NS4B assessed as inhibition constant
[12] = AUC in Sprague-Dawley rat plasma […] at 10 mg/kg, po administered via gavage by LC-MS/MS analysis; assay type: ADME, organism-based; settings: in vivo
[13] = Volume of distribution at steady state in Sprague-Dawley rat at 1 mg/kg, iv; assay type: ADME, organism-based; settings: in vivo, read-out: Vdss
[14] = Volume of distribution at steady state in Beagle dog at 0.5 mg/kg, iv and measured upto 24 hrs by LC-MS/MS analysis; assay type: ADME, organism-based, Canis lupus familiaris; settings: in vivo, read-out: Vdss
[15] = biological target: T1, Non-structural protein 4b; experiment: Inhibition of Hepatitis C virus genotype 3a NS4B
[16] = biological target: T1, Non-structural protein 4b; experiment: Inhibition of Hepatitis C virus genotype 1b NS4B
[17] = biological target: T1, Non-structural protein 4b; experiment: Binding affinity to Hepatitis C virus genotype 1 NS4B assessed as inhibition constant
[18] = biological target: Replicase polyprotein 1ab (Severe acute respiratory syndrome coronavirus 2, UniProt P0DTD1); experiment: Inhibition of SARS-CoV-2 3CL protease by FRET assay
SARS-CoV-2 [19] = experiment: Antiviral activity against SARS-CoV-2 infected in African green monkey Vero E6 cells assessed as reduction in viral replication measured after 48 hrs by Hoechst 33342 staining based analysis; assay type: functional, organism-based; settings: Severe acute respiratory syndrome coronavirus 2, Vero C1008, 48 h
[20] = Inhibition of Hepatitis C virus NS3 protease; set-up: species or system Hepacivirus hominis
SARS-CoV-2 [21] = experiment: Antiviral activity against SARS-CoV-2 infected in human Huh-7 cells assessed as reduction in viral growth; assay type: functional, organism-based; settings: Severe acute respiratory syndrome coronavirus 2, Huh-7
[22] = biological target: T1, Non-structural protein 4b; experiment: Binding affinity to full length Hepatitis C virus genotype 1b NS4B expressed in Escherichia coli assessed as inhibition constant
[23] = biological target: T1, Non-structural protein 4b; experiment: Inhibition of Hepatitis C virus genotype 1a NS4B

Q: What does the source list for `COc1ccc2nc3c(nc2c1)O[C@@H]1CC2C(=O)N[C@]4(C(=O)NS(=O)(=O)C5(C)CC5)C[C@@H]4/C=C/CCCCC[C@H](NC(=O)O[C@@H]4CCC[C@H]4CCCCC3)C(=O)N2C1` (some centres not stated)?
A: bioavailability [1]: 12%; half-life [2]: 3.8 h; Cmax [3]: 0.07 µM; bioavailability [4]: 8%; clearance [5]: 1.98 L/h/kg; clearance [6]: 0.264 L/h/kg; AUC [7]: 2470 µM·h; Ki [8]: 0.26 nM; Cmax [9]: 0.35 µM; half-life [10]: 2.3 h; Ki [11]: 0.005 nM; AUC [12]: 20 µM·h; Vd [13]: 4 L/kg; Vd [14]: 0.5 L/kg

Q: What does the source list for `C=C[C@@H]1C[C@]1(NC(=O)[C@@H]1C[C@@H](Oc2cc3ccccc3cn2)CN1C(=O)[C@@H](NC(=O)OCC(C)C)C(C)(C)C)C(=O)NS(=O)(=O)C1(C)CC1`?
A: IC50 [15]: 430 nM; IC50 [16]: 2.7 nM

Q: With `CCC[C@H](NC(=O)[C@@H]1C[C@@H](OC(=O)N2CCc3ccccc3C2)CN1C(=O)[C@@H](NC(=O)[C@@H](NC(=O)c1cnccn1)C(C)C)C(C)C)C(=O)C(=O)NC1CC1` as the compound, how does the Ki [17] read?
A: Its Ki is 2300 nM.

Q: What does the source list for `C=C[C@@H]1C[C@]1(NC(=O)[C@@H]1C[C@@H](Oc2cc(-c3csc(NC(C)C)n3)nc3c(C(C)C)c(OC)ccc23)CN1C(=O)[C@@H](NC(=O)OC1CCCC1)C(C)(C)C)C(=O)O`?
A: IC50 [18]: 14 nM; EC50 (SARS-CoV-2 [19]): 45 nM

Q: With `C=C[C@@H]1C[C@]1(NC(=O)[C@@H]1C[C@@H](Oc2cc(-c3ccccc3)nc3cc(OC)ccc23)CN1C(=O)[C@H](CCCCC)NC(=O)OC(C)(C)C)C(=O)O` as the compound, how does the IC50 [20] read?
A: The IC50 was 400 nM.

Q: For `C=C[C@@H]1C[C@]1(NC(=O)[C@@H]1C[C@@H](Oc2cc(-c3csc(C(=O)CC)n3)nc3c(C)c(OC)ccc23)CN1C(=O)[C@@H](NC(=O)OC1CCCC1)C(C)(C)C)C(=O)O`, which IC50 [18] is on record?
A: Its IC50 is 10 nM.

Q: And the EC50 (SARS-CoV-2 [19])?
A: The EC50 was 12 nM.

Q: For `COc1ccc2nc3c4c(c2c1)CC[C@]1(C[C@H]2C(=O)N[C@]5(C(=O)NS(=O)(=O)C6(C)CC6)C[C@H]5/C=C/CCCCC[C@H](NC(=O)O[C@@H]5CCC[C@H]5CCCCC3)C(=O)N2C1)O4`, which IC50 [18] is on record?
A: Its IC50 is under 0.01 nM.

Q: For `COc1ccc2nc(C(F)(F)F)c3c(c2c1)CC[C@]1(C[C@H]2C(=O)N[C@]4(C(=O)NS(=O)(=O)C5(C)CC5)C[C@H]4/C=C/CCCCCC(NC(=O)OC(C)(C)C)C(=O)N2C1)O3` (some centres not stated), which IC50 [15] is on record?
A: Its IC50 is 0.47 nM.

Q: With `CCC[C@H](NC(=O)[C@@H]1C[C@@H](OCc2cccc3ccccc23)CN1C(=O)[C@@H](NC(=O)[C@@H](NC(=O)[C@@H](CC(=O)O)NC(=O)[C@H](CC(=O)O)NC(C)=O)C1CCCCC1)C(C)C)C(=O)O` as the compound, how does the IC50 [20] read?
A: Its IC50 is 27 nM.

Q: With `CC[C@H](C)[C@H](NC(=O)[C@@H](CC(=O)O)NC(=O)[C@H](CC(=O)O)NC(C)=O)C(=O)N[C@H](C(=O)N1CCC[C@H]1C(=O)N[C@@H](CS)C(=O)O)C(C)C` (Ac-D[dD]IVPC-OH) as the compound, how does the IC50 [20] read?
A: Its IC50 is 4000 nM.

Q: For `CC[C@@H](C=O)NC(=O)[C@@H]1C[C@@H](OCc2ccccc2)CN1C(=O)[C@@H](NC(=O)[C@@H](NC(=O)[C@H](CC(=O)O)NC(=O)[C@H](CCC(=O)O)NC(C)=O)C(C)C)C(C)C` (Ac-EDVV[Hyp](Bn)[Abu]-aldehyde), which Ki [17] is on record?
A: The Ki was 890 nM.

Q: With `CC[C@@H](C=O)NC(=O)[C@@H]1C[C@@H](OCc2ccccc2)CN1C(=O)[C@@H](NC(=O)[C@@H](NC(=O)c1cnccn1)C(C)C)C(C)C` (Pyrazinecarbonyl-VV[Hyp](Bn)[Abu]-aldehyde) as the compound, how does the Ki [17] read?
A: Its Ki is 12000 nM.

Q: With `CC[C@@H](C=O)NC(=O)[C@@H]1C[C@@H](OC(=O)N2CCc3ccccc3C2)CN1C(=O)[C@@H](NC(=O)[C@@H](NC(=O)c1cnccn1)C(C)C)C(C)C` (Pyrazinecarbonyl-VV[Hyp]([CO-Tetrahydroisoquinolin(2-yl)])[Abu]-aldehyde) as the compound, how does the Ki [17] read?
A: The Ki was 890 nM.

Q: Which Ki [11] does the source give for `CC(C)(C)OC(=O)N[C@H]1CCCCC/C=C\[C@@H]2C[C@@]2(C(=O)NS(=O)(=O)C2CC2)NC(=O)[C@@H]2C[C@@H](OC(=O)N3Cc4cccc(F)c4C3)CN2C1=O` [DANOPREVIR] here?
A: The Ki was 1 nM.

Q: With `COc1ccc2c(O[C@@H]3C[C@H]4C(=O)N[C@]5(P(=O)(O)Cc6c(F)cccc6F)C[C@H]5CCCCCCC[C@H](NC(=O)OC5CCCC5)C(=O)N4C3)cc(-c3csc(NC(C)C)n3)nc2c1Cl` [GS-9256] as the compound, how does the EC50 (SARS-CoV-2 [21]) read?
A: The EC50 was 20 nM.

Q: And the Ki [22]?
A: The Ki was 0.089 nM.

Q: With `C=C[C@@H]1C[C@]1(NC(=O)[C@@H]1C[C@@H]2CN1C(=O)[C@H](C1CCCC1)NC(=O)O[C@@H]1CCC[C@H]1CCCCCn1c(nc3cc(OC)ccc3c1=O)O2)C(=O)NS(=O)(=O)C1(C)CC1` [MK-2748] as the compound, how does the bioavailability [1] read?
A: The bioavailability was 27%.

Q: And the half-life [2]?
A: Its half-life is 1.9 h.

Q: What about the Cmax [3] of the same compound?
A: The Cmax was 0.49 µM.

Q: What about the bioavailability [4] of the same compound?
A: Its bioavailability is 40%.

Q: And the clearance [5]?
A: Its clearance is 5.28 L/h/kg.

Q: What about the clearance [6] of the same compound?
A: Its clearance is 0.06 L/h/kg.

Q: And the AUC [7]?
A: Its AUC is 2420 µM·h.

Q: And the Ki [8]?
A: The Ki was 1.2 nM.

Q: And the IC50 [23]?
A: The IC50 was 0.009 nM.

Q: And the Cmax [9]?
A: The Cmax was 4.4 µM.

Q: And the half-life [10]?
A: Its half-life is 2.5 h.

Q: What about the Ki [11] of the same compound?
A: The Ki was 0.009 nM.

Q: What about the AUC [12] of the same compound?
A: Its AUC is 28.9 µM·h.

Q: And the Vd [13]?
A: Its Vd is 5 L/kg.

Q: What about the Vd [14] of the same compound?
A: Its Vd is 0.12 L/kg.
